Measured values reported in patent US11286255B2, “Pyridone carboxylic acid derivative or salt thereof” (WAKUNAGA PHARMACEUTICAL CO., LTD., priority 2017, dated 2022).

Test system: NCI-H460 (human non-small cell lung cancer cell line)
Test: In vitro cell growth inhibition test against NCI-H460
Type: cell-based
Settings: 72 h, NCI-H460 cells, 3 days culture, WST-8 (Cell Counting Kit-8), 50% growth inhibition concentration
Method: Test Example 1: In Vitro Cell Growth Inhibition Test Against NCI-H460 (Human Non-Small Cell Lung Cancer Cell Line)
An NCI-H460 cell suspension was inoculated at 4×10^3 cells/100 μL/well (0.1 mL) to a 96-well flat-bottomed multiplate using RPMI-1640 (Sigma-Aldrich Co. LLC, R8758) medium containing 10% […] (fetal bovine serum, Thermo Fisher Scientific Inc.), and cultured at 37° C. for 1 day in an incubator containing 5% carbon dioxide. The compound of the present invention was dissolved at a concentration of 1 mM in dimethyl sulfoxide and further diluted into 5.00, 2.50, 1.25, 0.63, 0.31, 0.16, 0.078, and 0.039 μM (final concentrations) using dimethyl sulfoxide and RPMI-1640 medium. Each of these dilutions was added at 0.1 mL/well to the culture plate of the NCI-H460 cells mentioned above after removal of the medium, and the cells were cultured at 37° C. for 3 days in an incubator containing 5% carbon dioxide.
After the culture, Cell Counting Kit-8 (Dojindo Laboratories), which adopts WST-8 [2-(2-methoxy-4-nitrophenyl)-3-(4-nitrophenyl)-5-(2,4-disulfophenyl)-2H-tetrazolium monosodium salt] as a chromogenic substrate, was added at 10 μL/well, and the cells were cultured under the same conditions as above for 1 hour, followed by measurement of absorbance at 450 nm. A cell survival rate was calculated in terms of 50% growth inhibition concentration (IC50 (μM)) by the least square method with that of a control group defined as 100%.

Row | IC50 [nM] | SMILES
1 | 220 | COCC(COC)NC(=O)C1CN(c2cc(C)c3c(=O)c(C(=O)O)cn(-c4nccs4)c3n2)C1 [Example 243, 7-{3-[(1,3-Dimethoxypropan-2-yl)carbamoyl]azetidin-1-yl}-5-methyl-4-oxo-1-(1,3-thiazol-2-yl)-1,4-dihydro-1,8-naphthyridine-3-carboxylic acid]
2 | 200 | Cc1cc(N2CC(c3ccon3)C2)nc2c1c(=O)c(C(=O)O)cn2-c1ncns1 [Example 499, 5-Methyl-7-[3-(1,2-oxazol-3-yl)azetidin-1-yl]-4-oxo-1-(1,2,4-thiadiazol-5-yl)-1,4-dihydro-1,8-naphthyridine-3-carboxylic acid]
3 | 380 | CNOC1CN(c2cc(C)c3c(=O)c(C(=O)O)cn(-c4ncns4)c3n2)C1 [Example 553, 5-methyl-7-{3-[(methylamino)oxy]azetidin-1-yl}-4-oxo-1-(1,2,4-thiadiazol-5-yl)-1,4-dihydro-1,8-naphthyridine-3-carboxylic acid]
4 | 900 | O=C(O)c1cn(-c2nccs2)c2nc(N3CC(CNc4ccccn4)C3)c(F)cc2c1=O [Example 561, 6-Fluoro-4-oxo-7-(3-{[(pyridin-2-yl)amino]methyl}azetidin-1-yl)-1-(1,3-thiazol-2-yl)-1,4-dihydro-1,8-naphthyridine-3-carboxylic acid]
5 | 260 | O=C(O)c1cn(-c2nccs2)c2nc(N3CC(C(=O)NCC4CCCCO4)C3)c(F)cc2c1=O (centres unmarked) [Example 173, 6-Fluoro-7-{3-[(oxan-2-ylmethyl)carbamoyl]azetidin-1-yl}-4-oxo-1-(1,3-thiazol-2-yl)-1,4-dihydro-1,8-naphthyridine-3-carboxylic acid]
6 | 190 | O=C(O)c1cn(-c2ncns2)c2nc(N3CC(NOCc4ccccc4)C3)c(F)cc2c1=O [Example 549, 7-{3-[(Benzyloxy)amino]azetidin-1-yl}-6-fluoro-4-oxo-1-(1,2,4-thiadiazol-5-yl)-1,4-dihydro-1,8-naphthyridine-3-carboxylic acid]
7 | 410 | Cc1ccc(C(=O)NC2CN(c3nc4c(cc3F)c(=O)c(C(=O)O)cn4-c3nccs3)C2)nc1 [Example 586, 6-Fluoro-7-[3-(5-methylpyridine-2-amido)azetidin-1-yl]-4-oxo-1-(1,3-thiazol-2-yl)-1,4-dihydro-1,8-naphthyridine-3-carboxylic acid]
8 | 190 | O=C(O)c1cn(-c2nccs2)c2nc(N3CC(C(=O)Nc4ccccn4)C3)c(F)cc2c1=O [Example 083, 6-Fluoro-4-oxo-7-{3-[(pyridin-2-yl)carbamoyl]azetidin-1-yl}-1-(1,3-thiazol-2-yl)-1,4-dihydro-1,8-naphthyridine-3-carboxylic acid]
9 | 110 | CCOCC(COCC)NC(=O)C1CN(c2cc(C)c3c(=O)c(C(=O)O)cn(-c4nccs4)c3n2)C1 [Example 006, 7-{3-[(1,3-Diethoxypropan-2-yl)carbamoyl]azetidin-1-yl}-5-methyl-4-oxo-1-(1,3-thiazol-2-yl)-1,4-dihydro-1,8-naphthyridine-3-carboxylic acid]
10 | 260 | CCCn1nc(NC(=O)C2CN(c3nc4c(c(C)c3F)c(=O)c(C(=O)O)cn4-c3ncns3)C2)cc1C [Example 218, 6-Fluoro-5-methyl-7-{3-[(5-methyl-1-propyl-1H-pyrazol-3-yl)carbamoyl]azetidin-1-yl}-4-oxo-1-(1,2,4-thiadiazol-5-yl)-1,4-dihydro-1,8-naphthyridine-3-carboxylic acid]
11 | 390 | CCONC1CN(c2cc(C)c3c(=O)c(C(=O)O)cn(-c4ncns4)c3n2)C1 [Example 541, 7-[3-(Ethoxyamino)azetidin-1-yl]-5-methyl-4-oxo-1-(1,2,4-thiadiazol-5-yl)-1,4-dihydro-1,8-naphthyridine-3-carboxylic acid]
12 | 260 | Cc1cnc(C2CN(c3cc(C)c4c(=O)c(C(=O)O)cn(-c5ncns5)c4n3)C2)o1 [Example 489, 5-Methyl-7-[3-(5-methyl-1,3-oxazol-2-yl)azetidin-1-yl]-4-oxo-1-(1,2,4-thiadiazol-5-yl)-1,4-dihydro-1,8-naphthyridine-3-carboxylic acid]
13 | 160 | Cc1c(F)c(N2CC(n3cccn3)C2)nc2c1c(=O)c(C(=O)O)cn2-c1nccs1 [Example 487, 6-Fluoro-5-methyl-4-oxo-7-[3-(1H-pyrazol-1-yl)azetidin-1-yl]-1-(1,3-thiazol-2-yl)-1,4-dihydro-1,8-naphthyridine-3-carboxylic acid]
14 | 210 | Cc1ccc(C(=O)NC2CN(c3cc(C)c4c(=O)c(C(=O)O)cn(-c5ncns5)c4n3)C2)nc1 [Example 584, 5-Methyl-7-[3-(5-methylpyridine-2-amido)azetidin-1-yl]-4-oxo-1-(1,2,4-thiadiazol-5-yl)-1,4-dihydro-1,8-naphthyridine-3-carboxylic acid]
15 | 400 | CCOCCNC(=O)C1CN(c2cc(C)c3c(=O)c(C(=O)O)cn(-c4nc(-c5cccnc5)cs4)c3n2)C1 [Example 414, 7-{3-[(2-Ethoxyethyl)carbamoyl]azetidin-1-yl}-5-methyl-4-oxo-1-[4-(pyridin-3-yl)-1,3-thiazol-2-yl]-1,4-dihydro-1,8-naphthyridine-3-carboxylic acid]
16 | 340 | CC(=O)C1CN(c2cc(C)c3c(=O)c(C(=O)O)cn(-c4nccs4)c3n2)C1 [Example 020, 7-(3-Acetylazetidin-1-yl)-5-methyl-4-oxo-1-(1,3-thiazol-2-yl)-1,4-dihydro-1,8-naphthyridine-3-carboxylic acid]

Test system: relapsed/refractory acute myeloid leukemia
Test: not given
Settings: overall survival targeting all patients; cited from earlier work

Row | SMILES | therapeutic effect in overall survival (primary endpoint) as compared with a placebo group
17 | CNC1CN(c2ccc3c(=O)c(C(=O)O)cn(-c4nccs4)c3n2)CC1OC (centres unmarked) [the compound, 1,4-dihydro-7-(3-methoxy-4-methylamino-1-pyrrolidinyl)-4-oxo-1-(2-thiazolyl)-1,8-naphthyridine-3-carboxylic acid, reference compound] | does not exhibit a significant therapeutic effect
